This is an account of results in US11000033B2, “Ketone or oxime compound, and herbicide” (NISSAN CHEMICAL CORPORATION, priority 2014, dated 2021).

What all share (assay type): in vivo
One data set concerns Digitaria ciliaris. Description: Test Example 5: herbicidal effect by foliage application, plastic box (symbol F). Conditions: 320 g/ha, 3 weeks after application. A digest of the protocol: (§1)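 After sowing into sterilized diluvial soil and growing two weeks under glass at 25° C. to 30° C., seedlings receive a uniform foliar spray of diluted emulsion. Damage is judged visually three weeks on.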

Data set [1] has as its system Chenopodium album. As to the kind of experiment: Test Example 5: herbicidal effect by foliage application, plastic box (symbol O). Conditions: 320 g/ha, 3 weeks after application. The method in brief:
as §1

Data set [2] deals with Chenopodium album. As to the kind of experiment: Test Example 4: herbicidal effect by soil treatment (symbol O). The method in brief:
(§2)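 Seeds were sown in sterilized diluvial soil, covered with about 1.5 cm of soil, and the soil surface was sprayed with a water-diluted emulsion of the compound at a predetermined rate. Plants grew in a greenhouse at 25° C. to 30° C.; effects were scored visually 3 weeks after application.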

Data set [3] deals with Echinochloa oryzacola Vasing. Description: Test Example 2: herbicidal activity, application during weed generation in submerged conditions (symbol A). The settings on record: Table 23; application herbicide amount 320 g/ha; grade 0-5 by criteria of Test Example 1. A digest of the protocol:
(§3)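 Read-out: herbicidal effect on each species rated on a visual scale 3 weeks after treatment. Plants were raised together from seed in flooded alluvial soil (4 cm water) at 25° C. to 30° C. and treated at one to two leaves by water-surface application of diluted emulsion.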

Data set [4] deals with Scirpus juncoides. Description: Test Example 1: herbicidal activity, application before weed generation in submerged conditions (symbol B). Conditions: application herbicide amount 320 g/ha. The method in brief:
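Weeds are sown into submerged alluvial soil alongside transplanted 2.5-leaf rice, and the compound, as an emulsion diluted to a set rate, is applied onto the water before emergence. Rating on the 0–5 herbicidal-ratio scale follows 3 weeks of greenhouse growth at 25–30 °C.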

The test system of the next data set is rice plant. Description: Test Example 5: effect on crop by foliage application, plastic box (symbol b). Conditions: 320 g/ha, 3 weeks after application. A digest of the protocol:
(§4)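 Greenhouse culture at 25° C. to 30° C. followed spot-like sowing into sterilized diluvial soil, with seed covered by roughly 1.5 cm of soil.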

Another data set deals with beet. Description: Test Example 4: effect on crop by soil treatment (symbol f). A digest of the protocol:
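Steps: fill box with sterilized diluvial soil; sow seed spot-like; cover with ~1.5 cm soil; grow in greenhouse (25° C. to 30° C.).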

The subject of a further data set is Stellaria media. As to the kind of experiment: Test Example 4: herbicidal effect by soil treatment (symbol P). The method in brief: as §2
Another data set concerns Avena fatua. As to the kind of experiment: Test Example 4: herbicidal effect by soil treatment (symbol I). The method in brief:
as §2

In data set [5] the test system is Scirpus juncoides. Description: Test Example 2: herbicidal activity, application during weed generation in submerged conditions (symbol B). Conditions: Table 23; application herbicide amount 320 g/ha; grade 0-5 by criteria of Test Example 1. A digest of the protocol: as §3
For data set [6], the system named is Echinochloa crus-galli var. crus-galli. Description: Test Example 3: herbicidal effect by foliage application, Wagner pot (symbol H). Conditions: application herbicide amount 320 g/ha. A digest of the protocol:
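Scoring took place 3 weeks after application, using fixed criteria. Plants had been raised from seed for 14 days at 25 to 30 °C in submerged alluvial soil before a diluted emulsion of the test compound was sprayed uniformly on the leaves.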

For the next data set, the system named is rapeseed. As to the kind of experiment: Test Example 5: effect on crop by foliage application, plastic box (symbol g). The settings on record: 320 g/ha, 3 weeks after application. The method in brief:
as §4

Where [7] appears, read: application herbicide amount 320 g/ha.

In the case of `CON=C(C)CON=C(C)CC1CC(O)=C(c2c(C)cc(C)cc2C)C1=O` (stereo not drawn) [1-105], the “F: Digitaria ciliaris, herbicidal effect (criteria 0-5)” value in the data set with Digitaria ciliaris is recorded as 5 (Herbicidal ratio of 90% or more (almost completely withered)). Besides, the “O: Chenopodium album, herbicidal effect (criteria 0-5)” value in the data set on Chenopodium album [1] was 2 (Herbicidal ratio of 20% or higher and lower than 40%). For the same compound, in the data set on Chenopodium album [2] (320 g/ha), the “O: Chenopodium album, herbicidal effect grade” value is on record as 0 (Herbicidal ratio of 5% or lower (almost no effect)). In addition, in data set [3], the “Herbicidal effect grade, A: Echinochloa oryzacola Vasing.” value is recorded as 5 (Herbicidal ratio of 90% or more (almost completely withered)). Further, the “Herbicidal effect grade, B: Scirpus juncoides” value (“Herbicidal effect grade, B” for short) in the data set with Scirpus juncoides [4] and with Scirpus juncoides [5] was 5 (Herbicidal ratio of 90% or more (almost completely withered)) in each case. Further, the “b: directly sowed rice plant, effect on crop (criteria 0-5)” value with rice plant was 5 (Herbicidal ratio of 90% or more (almost completely withered)). In addition, the “f: beet, effect grade on crop” value in the data set with beet (320 g/ha) was 0 (Herbicidal ratio of 5% or lower (almost no effect)). For the same compound, the “P: Stellaria media, herbicidal effect grade” value in the data set on Stellaria media (320 g/ha) is reported as 0 (Herbicidal ratio of 5% or lower (almost no effect)). Besides, the “I: Avena fatua, herbicidal effect grade” value in the data set on Avena fatua (320 g/ha) is 1 (Herbicidal ratio of 5% or higher and lower than 20%). For the same compound, the “herbicidal effect on H (Echinochloa crus-galli var. crus-galli), grade 0-5” value in data set [6] is recorded as 5 (Herbicidal ratio of 90% or more (almost completely withered)). In addition, the “g: rapeseed, effect on crop (criteria 0-5)” value with rapeseed is 4 (Herbicidal ratio of 70% or higher and lower than 90%).

Regarding `CON=C(C)CC1CC(OS(C)(=O)=O)=C(c2c(C)cc(C)cc2C)C1=O` (stereo not drawn) [1-006], the “F: Digitaria ciliaris, herbicidal effect grade” value with Digitaria ciliaris is 5 (Herbicidal ratio of 90% or more (almost completely withered)). For the same compound, in the data set on Chenopodium album [1], the “O: Chenopodium album, herbicidal effect grade” value is 0 (Herbicidal ratio of 5% or lower (almost no effect)). The “O (Chenopodium album) herbicidal effect grade” value with Chenopodium album [2] (setting [7]) was 0 (Herbicidal ratio of 5% or lower (almost no effect)). Further, the “Herbicidal effect grade, A: Echinochloa oryzacola Vasing.” value in [3] is 5 (Herbicidal ratio of 90% or more (almost completely withered)). For the same compound, the “Herbicidal effect grade, B” value in the data set on Scirpus juncoides [4] is 3 (Herbicidal ratio of 40% or higher and lower than 70%); in the data set with Scirpus juncoides [5], 3 (Herbicidal ratio of 40% or higher and lower than 70%). Moreover, the “b: directly sowed rice plant, effect on crop grade” value in the data set on rice plant is 5 (Herbicidal ratio of 90% or more (almost completely withered)). The “f (beet) effect on crop grade” value in the data set on beet (setting [7]) is 0 (Herbicidal ratio of 5% or lower (almost no effect)). Further, the “P (Stellaria media) herbicidal effect grade” value with Stellaria media (setting [7]) is 0 (Herbicidal ratio of 5% or lower (almost no effect)). For the same compound, the “I (Avena fatua) herbicidal effect grade” value in the data set on Avena fatua (setting [7]) is 3 (Herbicidal ratio of 40% or higher and lower than 70%). Besides, in data set [6], the “herbicidal effect on H (Echinochloa crus-galli var. crus-galli), grade 0-5” value is reported as 5 (Herbicidal ratio of 90% or more (almost completely withered)). The “g: rapeseed, effect on crop grade” value in the data set with rapeseed was 3 (Herbicidal ratio of 40% or higher and lower than 70%).

As to `CCC(CC1CC(O)=C(c2c(C)cc(C)cc2OC)C1=O)=NOC` (mixture of isomers) [13-003], the “F: Digitaria ciliaris, herbicidal effect grade” value in the data set with Digitaria ciliaris was 5 (Herbicidal ratio of 90% or more (almost completely withered)). In addition, the “O: Chenopodium album, herbicidal effect grade” value in the data set with Chenopodium album [1] and in the data set on Chenopodium album [2] (setting [7]) was 0 (Herbicidal ratio of 5% or lower (almost no effect)) in each case. Moreover, the “Herbicidal effect grade, A: Echinochloa oryzacola Vasing.” value in [3] is recorded as 5 (Herbicidal ratio of 90% or more (almost completely withered)). Further, in the data set on Scirpus juncoides [4], the “B (Scirpus juncoides) herbicidal effect grade” value is given as 5 (Herbicidal ratio of 90% or more (almost completely withered)). The “b: directly sowed rice plant, effect on crop grade” value in the data set on rice plant was 5 (Herbicidal ratio of 90% or more (almost completely withered)). Besides, the “f: beet, effect on crop grade” value in the data set on beet (setting [7]) is 0 (Herbicidal ratio of 5% or lower (almost no effect)). Also, the “P: Stellaria media, herbicidal effect grade” value with Stellaria media (setting [7]) is reported as 0 (Herbicidal ratio of 5% or lower (almost no effect)). The “I: Avena fatua, herbicidal effect grade” value in the data set on Avena fatua (setting [7]) was 1 (Herbicidal ratio of 5% or higher and lower than 20%). In the data set with Scirpus juncoides [5], the “Herbicidal effect grade, B” value is 4 (Herbicidal ratio of 70% or higher and lower than 90%). Moreover, in [6] (Table 24), the “H (Echinochloa crus-galli var. crus-galli) herbicidal effect grade” value is listed as 5 (Herbicidal ratio of 90% or more (almost completely withered)). In the data set with rapeseed, the “g: rapeseed, effect on crop grade” value is 4 (Herbicidal ratio of 70% or higher and lower than 90%).
